Several values for one entry are separate records, joined by “and”; a condition that tells them apart may be missing. Equal entries are not always repeated.
Key:
[1] = compared with DHEA; cited from earlier work
[2] = injection (i.m.) in man; cited from earlier work
[3] = Second study: body weight gain and food consumption in rats on higher-fat diet with steroid; assay type: in vivo, Sprague-Dawley rats; settings: for FOOD CONSUMPTION: Av.Wks 1 - 4 (control 23.4)
Method: A second study was carried out on male Sprague-Dawley rats with initial starting weight of 272 ± 5 gms. […] On the last day of the study the animals were dosed with approximately 1 micro Ci of ^3H labeled material (Amersham) corresponding to the treatment they had received. Groups of three animals- were sacrificed at 1 hour, 4 hours and 12 hours after dosing, and the adrenals, gonads, liver, epididymal fat pads, and blood collected for analysis. Urine and feces were also collected during the post-tracer dosing period.

[4] = Weight gain, food consumption, fat pad and alpha-ET blood level in normal rats fed steroid in diet for three weeks; assay type: in vivo, Sprague-Dawley rats; settings: for FOOD CONSUMPTION: 0.367% in diet (dose from method)
Method: All of the above considerations make ET-dione not only suitable but preferred in the treatment of diabetes, obesity and blood suppressive disorders such as aplastic anemia.
Food consumption and body weight were measured weekly. Blood samples were taken at the end of the study for assay of alpha-ET by RIA and measurement of serum total cholesterol, HDL-cholesterol and triglycerides. Liver weight (absolute and % of body weight), total cholesterol, % of esterified cholesterol and triglycerides in the liver were also determined. In addition, epididymal fat pad weights were measured.

[5] = Absorption and blood level profiles after oral suspensions, three-way crossover; serum alpha-ET by RIA; assay type: in vivo, human; settings: 200 mg oral suspension, at 4 hours past administration
Method: Each subject received all three drugs in randomized order with a one-week wash-out period between doses. Following an overnight fast, subjects received 200 mg of test drug suspended in approximately 6 oz of apple juice. Blood samples were drawn immediately prior to drug administration and at 15 minutes, 30 minutes, 1, 2, 4, 8, 12 and 24 hours.

For `C[C@]12CC[C@H](O)C[C@H]1CC[C@@H]1[C@@H]2CC[C@]2(C)C(=O)CC[C@@H]12` [Beta-ET, 5-beta-androstan-3-beta-ol-17-one], the “effectiveness in preventing the development of diabetes” value [1] is given as “four times more effective than DHEA” and the pyrogenic effect [2] is given as “little pyrogenic effect”.

In the case of `C[C@]12CCC(=O)C[C@H]1CC[C@@H]1[C@@H]2CC[C@]2(C)C(=O)CC[C@@H]12` [ET-dione, 5-beta-androstanedione], the “% W vs Control Day 28” value ([3]; 0.4% in diet) is reported as -18.6%, the “FOOD CONSUMPTION” value ([3]; 0.4% in diet) is reported as 22.0 g/day and the “BODY WEIGHT GAINS” value ([3]; 0.4% in diet, Day 7 (control 56)) is reported as 44. For the same compound, the “BODY WEIGHT GAINS” value ([3]; 0.4% in diet, Day 14 (control 109)) was 89, the “BODY WEIGHT GAINS” value ([3]; 0.4% in diet, Day 21 (control 145)) was 117 and the “BODY WEIGHT GAINS” value ([3]; 0.4% in diet, Day 28 (control 183)) was 149. The “% W vs Control Day 28” value ([3]; 0.8% in diet) was -21.3%, the “FOOD CONSUMPTION” value ([3]; 0.8% in diet) was 20.6 g/day and the “BODY WEIGHT GAINS” value ([3]; 0.8% in diet, Day 7 (control 56)) was 34. The “BODY WEIGHT GAINS” value ([3]; 0.8% in diet, Day 14 (control 109)) was 83, the “BODY WEIGHT GAINS” value ([3]; 0.8% in diet, Day 21 (control 145)) was 112 and the “BODY WEIGHT GAINS” value ([3]; 0.8% in diet, Day 28 (control 183)) was 144. For the same compound, the “effectiveness in reducing weight gain compared with alpha-ET” value ([3]; at all concentrations tested) was “almost twice as effective as alpha-ET”, the “% W vs Control Day 21” value ([4]; 0.367% in diet) was -16.6% and the “FOOD CONSUMPTION” value ([4]; Average, mean ± S.E. (control 25.6 ± 0.6), significantly different from control (p < 0.05)) was 23.4 ± 0.6 g/rat/day. For the same compound, the “FOOD CONSUMPTION” value ([4]; week 1, mean ± S.E. (control 26.8 ± 0.8)) was 23.0 ± 0.6 g/rat/day, the “FOOD CONSUMPTION” value ([4]; week 2, mean ± S.E. (control 24.9 ± 0.6)) was 24.6 ± 0.5 g/rat/day and the “FOOD CONSUMPTION” value ([4]; week 3, mean ± S.E. (control […] ± 0.6)) was 22.6 ± 0.5 g/rat/day. The “Weight” value ([4]; 0.367% in diet, Day 0, mean ± S.E.) was 260 ± 3 g, the “W(g) (weight gain)” value ([4]; 0.367% in diet, Day 7 (control 48)) was 38 g and the “Weight” value ([4]; 0.367% in diet, Day 7, mean ± S.E. (control 308 ± 5)) was 298 ± 2 g. The “W(g) (weight gain)” value ([4]; 0.367% in diet, Day 14 (control 94)) was 81 g, the “Weight” value ([4]; 0.367% in diet, Day 14, mean ± S.E. (control 354 ± 6)) was 341 ± 3 g and the “W(g) (weight gain)” value ([4]; 0.367% in diet, Day 21 (control 121), significantly different from control (p < .05)) was 101 g and 101+ g. For the same compound, the “Weight” value ([4]; 0.367% in diet, Day 21, mean ± S.E. (control 381 ± 7)) was 361 ± 3 g, the “Fat Pad as % of Body Wt” value ([4]; 0.367% in diet, three weeks (control 1.02 ± 0.08)) was 0.97 ± 0.07% and the “Fat Pad Wt” value ([4]; epididymal fat pad, 0.367% in diet, three weeks (control 3.88 ± 0.29)) was 3.50 ± 0.26 g. The “free alpha-ET levels compared with alpha-ET or beta-ET administration” value [5] was “significantly higher”.

Source: patent publication EP0261891A2, “Pharmaceutical compositions containing etiochiolandione” (Progenics, Inc., priority 1986, dated 1988)
